How the values were obtained:
[1] = system: CIAP1-TRAF3 complex; assay: TRAF3 immunoprecipitation (ubiquitin-Lys-48, CIAP1) in TWEAK-stimulated HK2 cells; type: cell-based, Human; conditions: TWEAK 100 ng/ml, paricalcitol 15 umol/L
Description: Human kidney proximal tubule epithelial cells (HK2 cell line, ATCC CRL-2190) were grown in RPMI 1640 with 10% fetal bovine serum (FBS), 1% glutamine, 100 U/ml penicillin, 100 µg/ml streptomycin, 5 µg/ml insulin-transferrin-selenite and 36 ng/ml hydrocortisone in 5% CO2 at 37° C. When cells reached 60 to 70% confluence, they were serum-depleted for 24 hours before the experiment.
Cells were stimulated with 100ng/ml recombinant human soluble TWEAK (Millipore) or p-200 µg/ml cresyl-sulfate (Raymond Vanholder and Griet Glorieux, University of Gent, Belgium). Concentrations of TWEAK and p-cresyl-sulfate were based on previously published dose-response experiments (Poveda et al. 2014; Sanz et al. 2008). […] DMSO, used as a solvent in some cases, had no effect on cell viability or on gene expression levels.
Cells growing in tissue culture dish plates, were lysed in 300-500 µl Triton-NP-40 lysis buffer [50 mmol/L Tris-HCl pH 8, 150 mmol/L NaCl, 1 mmol/L phenylmethylsulphonylfluoride, 1% NP-40/IGEPAL, and a phosphatase-inhibitor cocktail (Set II, Calbiochem)], scraped off the dish and incubated 1 hour to 4°C with shaking. Cell lysates were precleared by incubating with 10 µl protein A-agarose bead slurries (0.5 mL agarose/2 mL phosphate-buffered saline) for 30 min at 4°C, and then centrifuged three times for 5 minutes at 2500 rpm, to wash supernatants. […]

[2] = system: NF-κB2; assay: Non-canonical NF-κB2 activation and NF-κB2 targets in kidneys of TWEAK-injected mice; type: in vivo
Description: All animal procedures were performed according to the guidelines of animal research in the European Community and with prior approval by the Ethics Committee of the Health Research of the IIS-Fundacion Jiménez Díaz. For in vivo studies, mice received a daily intraperitoneal injection of the VDRA Paricalcitol starting 48 hours prior to induction of kidney damage.
At the time of sacrifice, animals were anesthetized with 5 mg/kg xylazine (Rompun, Bayer AG) and 35 mg/kg ketamine (Ketolar, Pfizer) and the kidneys perfused in situ with cold saline before removal. Then, kidney portions were fixed in formalin buffer for immunohistochemistry studies or immediately frozen in liquid nitrogen for gene and protein studies.
TWEAK administration: C57BL/6 female mice (9-12 weeks, weight 20 g, 7-8 animals per group), received a single intraperitoneal injection of 0.5 µg TWEAK dissolved in saline and were sacrificed 24 hours later, as previously described (Sanz et al. 2008). Controls were injected with the saline vehicle (n=8-10 mice per group). TWEAK endotoxin level were <0.1 ng/mg, confirmed by MALDI-TOF. Some animals received paricalcitol 750 ng/kg/day, or the NF-κB2 inhibitor SN52, 0.7 mg/mouse/day, starting 48 hours before TWEAK administration. Animals were sacrificed 24 hours later. The dose of paricalcitol was chosen based on prior experience in mild inflammatory kidney conditions.
Paraffin-embedded kidney sections (3 µm) were stained using conventional methods. Antigen retrieval was performed by PTlink link system (Dako Diagnostics) with sodium citrate buffer (10 mmol/L) adjusted to pH 6-9 depending on the immunohistochemical marker, followed by immunohistochemical staining in a Dako Autostainer. Steps: 1) endogenous peroxidase blockade; 2) primary antibodies incubation; anti-CD3 (1:300; Dako) or anti-F4/80 (1:5000; Serotec); NF-κB p-p65 (1:200; Cell Signalling); NF-κB2 p52 (1:50; Cell Signaling); RelB (1:50; Santa Cruz Biotechnology); CCL21 (1:90; Santa Cruz Biotechnology); 3) washing; 4) DUOFLEX Doublestain EnVision™ treatment, using 3,3'-diaminobenzidine as chromogen. For F4/80 staining a rabbit anti-rat linker was used before EnVision. Sections were counterstained with Carazzi's hematoxylin. […] For each sample (processed by duplicate in a blinded manner), the average value was obtained from the analysis of 4 fields (20X objective) as density/mm2 or percentage stained area vs total analyzed area. Data are expressed as fold increase over control mice, as mean ± SEM of 8-10 animals per group. […]
For western blot, cell (25 µg/lane) and kidney (100-150 µg/lane) protein extracts were separated on 6%-12% polyacrylamide-SDS gels under reducing conditions. […] Autoradiographs were scanned using the Gel Doc™ EZ imager and analyzed with the Image Lab 3.0 software (BioRad). […]

TWEAK-induced p52 and RelB DNA binding activities ([2]; renal nuclear protein extracts, paricalcitol 750 ng/kg/day, ELISA): inhibited
Compound: C[C@H](/C=C/[C@H](C)C(C)(C)O)[C@H]1CC[C@H]2/C(=C/C=C3C[C@@H](O)C[C@H](O)C3)CCC[C@]12C [paricalcitol]
TRAF3 ubiquitination and CIAP1-TRAF3 complex formation [1]: prevented | renal CCL21A and CCL19 gene expression ([2]; paricalcitol 750 ng/kg/day or SN52 0.7 mg/mouse/day, real time PCR): reduced | TWEAK-induced NF-κB2 activation in the kidney: nuclear p52 and RelB accumulation in tubular epithelial cells ([2]; paricalcitol 750 ng/kg/day, immunohistochemistry, western blot): reduced | CCL21 protein levels ([2]; total kidney proteins, paricalcitol 750 ng/kg/day, western blot): reduced

From patent publication EP3748362A1, “IN VITRO METHOD FOR DETECTING RENAL DISEASE” (Fundacion Instituto De Investigacion Sanitaria Fundacion …, priority 2019, dated 2020)
